Publication PMC9189845, “Structure–Activity Relationships of 8-Hydroxyquinoline-Derived Mannich Bases with Tertiary Amines Targeting Multidrug-Resistant Cancer” (Journal of Medicinal Chemistry, 2022)
Where two headings read alike, the source gives them in different places.

How the values were obtained:
[1] = system: A431 cells; assay: PrestoBlue viability assay, A431 cells
[2] = system: MES-SA cells; assay: PrestoBlue viability assay, MES-SA cells; conditions: Homo sapiens, MES-SA
[3] = system: A431-B1 cells; assay: PrestoBlue viability assay, A431-B1 (A431-ABCB1) cells; conditions: for SR (A431 / A431-B1): fraction of IC50 in P-gp negative vs positive cells
[4] = system: MES-SA/Dx5 cells; assay: PrestoBlue viability assay, MES-SA/Dx5 cells (MDR, P-gp positive); conditions: for IC50: Homo sapiens; for SR_TQ: selectivity ratio MES-SA vs MES-SA/Dx5, with TQ; for SR: selectivity ratio MES-SA vs MES-SA/Dx5, without TQ
[5] = Homo sapiens, A-431, 72 h, read-out: IC50 / µM A431, 72 h incubation
[6] = Homo sapiens, A-431, read-out: pIC50 A431, SARM figure (converted)
[7] = read-out: IC50 / µM A431, 72 h incubation
[8] = 72 h, read-out: IC50 / μM MES-SA, absence of TQ, 72 h incubation
[9] = read-out: IC50 / μM MES-SA (values in parentheses), presence of 1 μM P-gp inhibitor tariquidar (TQ)
[10] = read-out: pIC50 value MES-SA+TQ, MES-SA cells, with TQ (converted)
[11] = read-out: pIC50 value MES-SA, MES-SA cells, without TQ (converted)
[12] = 72 h, read-out: IC50 / µM A431-B1, 72 h incubation
[13] = read-out: pIC50 A431-B1, SARM figure (converted)
[14] = MES-SA/Dx5, 72 h, read-out: IC50 / μM MES-SA/Dx5, absence of TQ, 72 h incubation
[15] = MES-SA/Dx5, read-out: IC50 / μM MES-SA/Dx5 (values in parentheses), presence of 1 μM P-gp inhibitor tariquidar (TQ)
[16] = MES-SA/Dx5, read-out: pIC50 value MES-SA/Dx5 + TQ, MES-SA/Dx5 cells, with TQ (converted)
[17] = MES-SA/Dx5, read-out: pIC50 value MES-SA/Dx5, MES-SA/Dx5 cells, without TQ (converted)

CCN(CC)Cc1cc(Cl)c2cccnc2c1O [Compound 5]
IC50 [1, 5]: 9.29 ± 1.55 µM | IC50 [1, 6]: 9.33 µM | IC50 [1, 7]: 10 ± 4.2 µM | IC50 [2, 8]: 2.97 ± 0.33 µM | IC50 [2, 9]: 3.25 µM | IC50 [2, 10]: 3.24 µM | IC50 [2, 11]: 2.95 µM | IC50 [3, 12]: 1.58 ± 1.11 µM | IC50 ([3]; read-out: IC50 / µM A431-B1, 72 h incubation): 1.52 ± 0.32 µM | IC50 [3, 13]: 1.48 µM | IC50 [4, 14]: 0.35 ± 0.06 µM | IC50 [4, 15]: 1.82 µM | IC50 [4, 16]: 1.82 µM | IC50 [4, 17]: 0.347 µM | SR_TQ [4]: 1.78 | SR [4]: 8.44

OCCN(CCO)Cc1cc(Cl)c2cccnc2c1O [Compound 6]
IC50 [1, 5]: 73.6 ± 0.75 µM | IC50 [2, 8]: 31.2 ± 4.04 µM | IC50 [2, 9]: 25.3 µM | IC50 [2, 10]: 25.1 µM | IC50 [2, 11]: 30.9 µM | IC50 [3, 12]: 20.5 ± 0.95 µM | SR (A431 / A431-B1) [3]: 3.60 | IC50 [4, 14]: 5.28 ± 1.28 µM | IC50 [4, 15]: 15.4 µM | IC50 [4, 17]: 5.13 µM | SR (MES-SA_TQ / Dx5_TQ) (values in parentheses) ([4]; fraction of IC50 in P-gp negative vs positive cells, presence of 1 μM TQ): 1.64 | SR_TQ [4]: 1.64 | SR [4]: 5.91

O=[N+]([O-])c1cc(CN(CCO)CCO)c(O)c2ncccc12 [Compound 7]
IC50 [1, 5]: 9.79 ± 1.13 µM | IC50 [2, 8]: 6.46 ± 0.49 µM | IC50 [2, 11]: 6.46 µM | IC50 [3, 12]: 9.18 ± 0.58 µM | SR (A431 / A431-B1) [3]: 1.07 | IC50 [4, 14]: 4.33 ± 0.2 µM | IC50 [4, 17]: 4.37 µM | SR [4]: 1.49

Oc1c(CN2CCOCC2)ccc2cccnc12 [Compound 8]
IC50 [1, 5]: 14.5 ± 0.32 µM | IC50 [2, 8]: 7.55 ± 0.91 µM | IC50 [2, 11]: 7.41 µM | IC50 [3, 12]: 6.51 ± 0.65 µM | SR (A431 / A431-B1) [3]: 2.23 | IC50 [4, 14]: 4.33 ± 0.31 µM | IC50 [4, 17]: 4.27 µM | SR [4]: 1.75

CCCCOCc1cc(CN2CCN(C)CC2)c(O)c2ncccc12 [Compound 10]
IC50 [1, 5]: 11.2 ± 0.37 µM | IC50 [1, 6]: 11.2 µM | IC50 [1, 7]: 11.2 ± 0.83 µM | IC50 [2, 8]: 7.23 ± 0.14 µM | IC50 [2, 9]: 5 µM | IC50 [2, 10]: 5.01 µM | IC50 [2, 11]: 7.24 µM | IC50 [3, 12]: 4.57 ± 0.2 µM | IC50 [3, 13]: 4.57 µM | IC50 [4, 14]: 2.12 ± 0.15 µM | IC50 [4, 15]: 3.92 µM | IC50 [4, 16]: 3.8 µM | IC50 [4, 17]: 2.14 µM | SR_TQ [4]: 1.28 | SR [4]: 3.4

CC(=O)Nc1cc(CN2CCCCC2)c(O)c2ncccc12 [Compound 11]
IC50 [1, 5]: > 100 µM | IC50 [2, 8]: 12.4 ± 1.67 µM | IC50 [2, 11]: 12.3 µM | IC50 [3, 12]: 58.2 ± 0.65 µM | IC50 [4, 14]: 19.4 ± 2.33 µM | IC50 [4, 17]: 19.1 µM | SR [4]: 0.64

Oc1c(CN2CCCC2)cc(Cl)c2cccnc12 [Compound 15]
IC50 [1, 5]: 7.45 ± 0.15 µM | IC50 [1, 6]: 7.41 µM | IC50 [2, 8]: 3.46 ± 0.51 µM | IC50 [2, 9]: 4.34 µM | IC50 [2, 10]: 4.27 µM | IC50 [2, 11]: 3.39 µM | IC50 [3, 12]: 1.97 ± 0.25 µM | IC50 [3, 13]: 1.95 µM | IC50 [4, 14]: 0.3 ± 0.06 µM | IC50 [4, 15]: 3.21 µM | IC50 [4, 16]: 3.16 µM | IC50 [4, 17]: 0.295 µM | SR_TQ [4]: 1.35 | SR [4]: 11.53

COCc1cc(CN2CCCC2)c(O)c2ncccc12 [Compound 17]
IC50 [1, 5]: 53.2 ± 6.49 µM | IC50 [1, 6]: 52.5 µM | IC50 [2, 8]: 11.1 ± 1.78 µM | IC50 [2, 9]: 10.5 ± 0.17 µM | IC50 [2, 10]: 10.5 µM | IC50 [2, 11]: 11 µM | IC50 [3, 12]: 4.05 ± 0.07 µM | IC50 [3, 13]: 4.07 µM | IC50 [4, 14]: 1.37 ± 0.26 µM | IC50 [4, 15]: 3.59 ± 0.53 µM | IC50 [4, 16]: 3.55 µM | IC50 [4, 17]: 1.35 µM | SR_TQ [4]: 2.92 | SR [4]: 8.09

COCc1cc(CN2CCCCC2)c(O)c2ncccc12 [Compound 21]
IC50 [1, 5]: 22.6 ± 4.32 µM | IC50 [1, 6]: 22.4 µM | IC50 [2, 8]: 9.35 ± 0.61 µM | IC50 [2, 9]: 9.56 ± 0.39 µM | IC50 [2, 10]: 9.55 µM | IC50 [2, 11]: 9.33 µM | IC50 [3, 12]: 3.53 ± 0.14 µM | IC50 [3, 13]: 3.55 µM | IC50 [4, 14]: 0.92 ± 0.11 µM | IC50 [4, 15]: 7.59 ± 0.08 µM | IC50 [4, 16]: 7.59 µM | IC50 [4, 17]: 0.912 µM | SR_TQ [4]: 1.26 | SR [4]: 10.19

CCOCc1cc(CN2CCCCC2)c(O)c2ncccc12 [Compound 22]
IC50 [1, 5]: 25.2 ± 8.88 µM | IC50 [1, 6]: 23.4 µM | IC50 [2, 8]: 8.77 ± 1.07 µM | IC50 [2, 9]: 9.13 ± 0.32 µM | IC50 [2, 10]: 9.12 µM | IC50 [2, 11]: 8.71 µM | IC50 [3, 12]: 4.17 ± 1.49 µM | IC50 [3, 13]: 3.89 µM | IC50 [4, 14]: 0.79 ± 0.14 µM | IC50 [4, 15]: 7.08 ± 0.23 µM | IC50 [4, 16]: 7.08 µM | IC50 [4, 17]: 0.776 µM | SR_TQ [4]: 1.29 | SR [4]: 11.12

CCCOCc1cc(CN2CCCCC2)c(O)c2ncccc12 [Compound 23]
IC50 [1, 5]: 6.72 ± 0.57 µM | IC50 [1, 6]: 6.76 µM | IC50 [2, 8]: 3.72 ± 0.25 µM | IC50 [2, 9]: 3.55 ± 0.08 µM | IC50 ([2]; read-out: pIC50 MES-SA_TQ, presence of 1 μM TQ (converted), SARM figure): 3.8 µM | IC50 [2, 10]: 3.55 µM | IC50 [2, 11]: 3.72 µM | IC50 [3, 12]: 1.53 ± 0.55 µM | IC50 [3, 13]: 1.45 µM | IC50 [4, 14]: 0.34 ± 0.02 µM | IC50 [4, 15]: 2.4 ± 0.04 µM | IC50 ([4]; MES-SA/Dx5, read-out: pIC50 Dx5_TQ, presence of 1 μM TQ (converted), SARM figure): 2.75 µM | IC50 [4, 16]: 2.4 µM | IC50 [4, 17]: 0.339 µM | SR_TQ [4]: 1.48 | SR [4]: 10.97

CC1CCN(Cc2cc(Cl)c3cccnc3c2O)CC1 [Compound 25]
IC50 [1, 5]: 8.93 ± 1.44 µM | IC50 [1, 6]: 8.71 µM | IC50 [2, 8]: 2.7 ± 0.21 µM | IC50 [2, 9]: 2.88 µM | IC50 [2, 10]: 2.88 µM | IC50 [2, 11]: 2.69 µM | IC50 [3, 12]: 1.46 ± 0.08 µM | IC50 [3, 13]: 1.45 µM | IC50 [4, 14]: 0.26 ± 0.04 µM | IC50 [4, 15]: 1.59 µM | IC50 [4, 16]: 1.58 µM | IC50 [4, 17]: 0.257 µM | SR_TQ [4]: 1.82 | SR [4]: 10.37

COCc1cc(CN2CCC(C)CC2)c(O)c2ncccc12 [Compound 26]
IC50 [1, 5]: 14.5 ± 3.84 µM | IC50 [1, 6]: 13.8 µM | IC50 [2, 8]: 6.2 ± 0.66 µM | IC50 [2, 9]: 6.47 ± 0.41 µM | IC50 [2, 10]: 6.46 µM | IC50 [2, 11]: 6.17 µM | IC50 [3, 12]: 2.29 ± 0.28 µM | IC50 [3, 13]: 2.29 µM | IC50 [4, 14]: 0.58 ± 0.05 µM | IC50 [4, 15]: 4.68 ± 0.16 µM | IC50 [4, 16]: 4.68 µM | IC50 [4, 17]: 0.575 µM | SR_TQ [4]: 1.38 | SR [4]: 10.73

CCOCc1cc(CN2CCC(C)CC2)c(O)c2ncccc12 [Compound 27]
IC50 [1, 5]: 11.8 ± 4.34 µM | IC50 [1, 6]: 11 µM | IC50 [2, 8]: 4.09 ± 0.42 µM | IC50 [2, 9]: 4.48 ± 0.37 µM | IC50 [2, 10]: 4.47 µM | IC50 [2, 11]: 4.07 µM | IC50 [3, 12]: 2.37 ± 0.87 µM | IC50 [3, 13]: 2.24 µM | IC50 [4, 14]: 0.47 ± 0.05 µM | IC50 [4, 15]: 3.05 ± 0.47 µM | IC50 [4, 16]: 3.02 µM | IC50 [4, 17]: 0.468 µM | SR_TQ [4]: 1.47 | SR [4]: 8.71
